Experimental findings from patent US20120184542A1, “PYRIDO PYRIMIDINES” (priority 2011, published 2012) are described below.

One test addresses T1, Human DYRK1A (Homo sapiens, UniProt Q13627).
T1 construct: purchased Invitrogen PV3997
The experiment in a line: DYRK1A Kinase TR-FRET (IMAP-Tb) Assay. Type of test: biochemical. To be noted: for IC50: TR-FRET (IMAP-Tb), ATP 70 μM, 37° C. 60 minutes, read-out: Enzyme IC50 (μM) DYRK1A. From the text:
The kinase TR-FRET (IMAP-Tb) assay uses a fluorescence labeled substrate peptide in the kinase reaction. Upon phosphorylation by the kinase, phosphopeptide is produced, which will be detected by the binding solution provided in IMAP TR-FRET binding kit. After the completion of the kinase reaction, the reaction will be stopped by adding the binding solution containing terbium tracer. This tracer is immobilized on the surface of the IMAP beads, which also contain metal ions on the beads that bind to the phospho-groups of the products. Thus the phosphorylated product of the reaction can enter into close proximity to the tracer, producing resonance energy transfer. Due to the long lifetime of terbium (Tb) fluorescence the detection can be run in time resolved mode, which virtually eliminates fluorescence interference from assay components or compounds.
The TR-FRET signal measurement from this assay, given as an IC50 measurement, is a measure of a test compound's ability to interfere with the phosphorylation of the peptide substrate, that is it inhibits the phosphorylation of the substrate peptide by DYRK1A, and is thus a measure of the test compound's ability to inhibit the activity of DYRK1A.
• 1. Human DYRK1A: from Invitrogen. Part #PV3997 • 2. Substrate Peptide: […] • 3. IMAP TR-FRET IPP Explorer Kit: from Molecular Devices. Part #R8157 • 4. Kinase Assay Buffer (KAB): 10 mM HEPES pH 7.0, 50 mM NaCl, 5 mM MgCl2, 1 mM DTT, 1 mM NaVO4, 200 μg/mL BSA (0.02%) • 5. Assay Plate: Remp polypropylene clear 384-well microplate. […] Detection Plate: Costa black 384-well microplate.
• 1. Transfer 1.5 μL of 20× compound solution to each well of an assay plate. • 2. Add to each well 22.5 μL of KAB Buffer. • 3. Add to each well 3 μL of the solution of DYRK1A and ATP. […] Add to each well 3 μL of the substrate peptide. The assay concentration is 1.0 μM • 5. Incubate the assay plates at 37° C. for 60 minutes. • 6. Add 18 μL of Detection Solution (1:800 diluted Progress bead stock, 1:400 diluted Tb stock, 80% Buffer A, and 20% Buffer B) into each well of detection plates. • 7. Transfer 6 μL of assay solution from the assay plate to the detection plate. • 8. Shake detection plates for 30 minutes. • 9. Read plates in Envision with wavelength set at excitation 340 nm for Tb, emission 490 nm, and […].
(In TR-FRET formats the signal depends on donor and acceptor labels being close together.)

For another test, the target named is T2, Human DYRK1B (Homo sapiens, UniProt Q9Y463).
T2 construct: purchased Invitrogen PR8350B (former PV4649)
T2 sequence (Q9Y463 whole entry): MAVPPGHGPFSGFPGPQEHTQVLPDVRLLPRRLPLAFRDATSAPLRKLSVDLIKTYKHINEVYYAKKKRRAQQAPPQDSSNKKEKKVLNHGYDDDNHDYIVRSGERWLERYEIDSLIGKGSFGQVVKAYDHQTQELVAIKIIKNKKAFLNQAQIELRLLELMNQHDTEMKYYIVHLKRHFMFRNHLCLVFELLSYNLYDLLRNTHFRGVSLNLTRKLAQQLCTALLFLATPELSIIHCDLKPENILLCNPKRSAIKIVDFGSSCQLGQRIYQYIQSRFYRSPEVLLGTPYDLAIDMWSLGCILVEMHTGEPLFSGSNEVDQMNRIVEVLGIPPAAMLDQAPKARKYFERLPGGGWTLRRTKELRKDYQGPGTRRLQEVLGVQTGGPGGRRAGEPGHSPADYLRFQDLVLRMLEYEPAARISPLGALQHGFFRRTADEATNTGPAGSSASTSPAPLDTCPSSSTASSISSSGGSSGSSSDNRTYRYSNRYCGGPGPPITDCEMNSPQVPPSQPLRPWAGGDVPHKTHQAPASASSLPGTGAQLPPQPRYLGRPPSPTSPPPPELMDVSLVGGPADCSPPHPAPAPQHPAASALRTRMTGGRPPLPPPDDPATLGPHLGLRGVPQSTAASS
Put plainly: DYRK1B Kinase TR-FRET (IMAP-Tb) Assay. The class given is biochemical. As to conditions: for IC50: TR-FRET (IMAP-Tb), ATP 70 μM, 37° C. 60 minutes, read-out: Enzyme IC50 (μM) DYRK1B; for inhibition at 10 µM: read-out: % inhibition of DYRK1B at 10 μM test compound concentration.

In the case of `C[C@H](NC(=O)c1ccc(Cl)c(NC(=O)c2cc3cnc(N4CCN(C)CC4)nc3[nH]c2=O)c1)c1ccccc1` [Example 173, 2-(4-Methyl-piperazin-1-yl)-7-oxo-7,8-dihydro-pyrido[2,3-d]pyrimidine-6-carboxylic acid [2-chloro-5-((S)-1-phenyl-ethylcarbamoyl)-phenyl]-amide], the IC50 at Human DYRK1A and on Human DYRK1B was above 10 µM in each case.
Take `COc1ncc2cc(C(=O)Nc3cc(C(=O)OCc4cccc(Cl)c4)ccc3Cl)c(=O)[nH]c2n1` [Example 53, 4-Chloro-3-[(2-methoxy-7-oxo-7,8-dihydro-pyrido[2,3-d]pyrimidine-6-carbonyl)-amino]-benzoic acid 3-chloro-benzyl ester]: on Human DYRK1A (read-out: % inhibition of DYRK1A at 10 μM test compound concentration), the inhibition at 10 µM was 32%. Also, at Human DYRK1B, the IC50 was above 10 µM.
Regarding `COc1ncc2cc(C(=O)Nc3cc(C(=O)N(C)C)ccc3Cl)c(=O)[nH]c2n1` [Example 55, 2-Methoxy-7-oxo-7,8-dihydro-pyrido[2,3-d]pyrimidine-6-carboxylic acid (2-chloro-5-dimethylcarbamoyl-phenyl)-amide], the IC50 at Human DYRK1A turned out to be 4.1 µM; at Human DYRK1B it was 1.37 µM.
For the compound `COC(=O)c1ccc(F)c(NC(=O)c2cc3cnc(OC)nc3[nH]c2=O)c1` [Example 43, 4-Fluoro-3-[(2-methoxy-7-oxo-7,8-dihydro-pyrido[2,3-d]pyrimidine-6-carbonyl)-amino]-benzoic acid methyl ester], at Human DYRK1A, the IC50 is 9.8 µM. In addition, the inhibition at 10 µM on Human DYRK1B came to 41%.
Take `COc1ncc2cc(C(=O)Nc3cc(C(=O)N[C@@H](CCO)c4ccccc4)ccc3Cl)c(=O)[nH]c2n1` [Example 159, (S)—N-(2-Chloro-5-(3-hydroxy-1-phenylpropylcarbamoyl)phenyl)-2-methoxy-7-oxo-7,8-dihydropyrido[2,3-d]pyrimidine-6-carboxamide]: the IC50 on Human DYRK1A was 3.88 µM. In addition, the inhibition at 10 µM at Human DYRK1B worked out at 22%.
In the case of `COc1ncc2cc(C(=O)Nc3cc(C(=O)NCC(C)C)ccc3Cl)c(=O)[nH]c2n1` [Example 79, 2-Methoxy-7-oxo-7,8-dihydro-pyrido[2,3-d]pyrimidine-6-carboxylic acid (2-chloro-5-isobutylcarbamoyl-phenyl)-amide], the IC50 at Human DYRK1A came out at 0.779 µM; at Human DYRK1B, 1.52 µM.
On to `CCN(CC)CCOc1ncc2cc(C(=O)Nc3cc(C(=O)OC)ccc3Cl)c(=O)[nH]c2n1` [Example 45, 4-Chloro-3-{[2-(2-diethylamino-ethoxy)-7-oxo-7,8-dihydro-pyrido[2,3-d]pyrimidine-6-carbonyl]amino}-benzoic acid methyl ester], for which the IC50 is 0.729 µM at Human DYRK1A and 0.85 µM at Human DYRK1B.
In the case of `C[C@@H](NC(=O)c1ccc(Cl)c(NC(=O)c2cc3cnc(N4CCOCC4)nc3[nH]c2=O)c1)c1ccccc1` [Example 156, 2-Morpholin-4-yl-7-oxo-7,8-dihydro-pyrido[2,3-d]pyrimidine-6-carboxylic acid [2-chloro-5-((R)-1-phenyl-ethylcarbamoyl)-phenyl]-amide], the IC50 on Human DYRK1A was 0.189 µM; on Human DYRK1B it was 0.586 µM.
Regarding `COC(=O)c1ccc(Cl)c(NC(=O)c2cc3cnc(N4CCCCC4)nc3[nH]c2=O)c1` [Example 34, 4-Chloro-3-[(7-oxo-2-piperidin-1-yl-7,8-dihydro-pyrido[2,3-d]pyrimidine-6-carbonyl)-amino]-benzoic acid methyl ester], the results for the IC50 at Human DYRK1A and on Human DYRK1B were 0.05 µM and 0.06 µM, respectively.
In the case of `COc1ncc2cc(C(=O)Nc3cc(C(=O)OCc4ccccc4Cl)ccc3Cl)c(=O)[nH]c2n1` [Example 52, 4-Chloro-3-[(2-methoxy-7-oxo-7,8-dihydro-pyrido[2,3-d]pyrimidine-6-carbonyl)-amino]-benzoic acid 2-chloro-benzyl ester], the IC50 was 1.19 µM at Human DYRK1A and 5.25 µM on Human DYRK1B.
The corresponding values for `COc1ncc2cc(C(=O)Nc3cc(C(=O)OCc4ccccc4)ccc3C)c(=O)[nH]c2n1` [Example 26, 3-[(2-Methoxy-7-oxo-7,8-dihydro-pyrido[2,3-d]pyrimidine-6-carbonyl)-amino]-4-methyl-benzoic acid benzyl ester] are 0.323 µM and 0.496 µM.
With `COc1ncc2cc(C(=O)Nc3cc(C(=O)NCc4ccccn4)ccc3Cl)c(=O)[nH]c2n1` [Example 66, 2-Methoxy-7-oxo-7,8-dihydro-pyrido[2,3-d]pyrimidine-6-carboxylic acid {2-chloro-5-[(pyridin-2-ylmethyl)-carbamoyl]-phenyl}-amide], the IC50 on Human DYRK1A is 0.16 µM; at Human DYRK1B, 0.282 µM.
For `COc1ncc2cc(C(=O)Nc3cc(C(=O)NC(CN)C4CCCCC4)ccc3Cl)c(=O)[nH]c2n1` (stereo not drawn) [Example 192, N-(5-(2-Amino-1-cyclohexylethylcarbamoyl)-2-chlorophenyl)-2-methoxy-7-oxo-7,8-dihydropyrido[2,3-d]pyrimidine-6-carboxamide], the results for the IC50 at Human DYRK1A and at Human DYRK1B were 0.036 µM and 0.047 µM, respectively.
For `CN1CCN(c2ncc3cc(C(=O)Nc4cc(C(=O)N[C@H](CN)Cc5cccc(F)c5)ccc4Cl)c(=O)[nH]c3n2)CC1` [Example 187, 2-(4-Methyl-piperazin-1-yl)-7-oxo-7,8-dihydro-pyrido[2,3-d]pyrimidine-6-carboxylic acid {5-[(S)-1-aminomethyl-2-(3-fluoro-phenyl)-ethylcarbamoyl]-2-chloro-phenyl}-amide], the IC50 worked out at 0.13 µM on Human DYRK1A and 0.202 µM at Human DYRK1B.
For `COc1ncc2cc(C(=O)Nc3cc(C(=O)NC(c4ccccc4)C(F)(F)CN)ccc3Cl)c(=O)[nH]c2n1` (stereo not drawn) [Example 196, N-(5-(3-amino-2,2-difluoro-1-phenylpropylcarbamoyl)-2-chlorophenyl)-2-methoxy-7-oxo-7,8-dihydropyrido[2,3-d]pyrimidine-6-carboxamide], the IC50 amounted to 0.175 µM at Human DYRK1A and 0.339 µM on Human DYRK1B.
For the compound `COC(=O)c1ccc(Cl)c(NC(=O)c2cc3cnc(N4CCOCC4)nc3[nH]c2=O)c1` [Example 33, 4-Chloro-3-[(2-morpholin-4-yl-7-oxo-7,8-dihydro-pyrido[2,3-d]pyrimidine-6-carbonyl)-amino]-benzoic acid methyl ester], the figures for the IC50 at Human DYRK1A and at Human DYRK1B were 0.095 µM and 0.128 µM, respectively.
For `C[C@H](NC(=O)c1ccc(Cl)c(NC(=O)c2cc3cnc(N4CCOCC4)nc3[nH]c2=O)c1)c1ccccc1` [Example 157, 2-Morpholin-4-yl-7-oxo-7,8-dihydro-pyrido[2,3-d]pyrimidine-6-carboxylic acid [2-chloro-5-((S)-1-phenyl-ethylcarbamoyl)-phenyl]-amide], in that order: above 10 µM and above 10 µM.
On to `CN1CCN(c2ncc3cc(C(=O)Nc4cc(C(=O)NCc5cccc(F)c5)ccc4Cl)c(=O)[nH]c3n2)CC1` [Example 177, 2-(4-Methyl-piperazin-1-yl)-7-oxo-7,8-dihydro-pyrido[2,3-d]pyrimidine-6-carboxylic acid [2-chloro-5-(3-fluoro-benzylcarbamoyl)-phenyl]amide], for which the results for the IC50 at Human DYRK1A and at Human DYRK1B were 0.0715 µM and 0.176 µM, respectively.
As for `CC(C)(O)CNc1ncc2cc(C(=O)Nc3cc(C(=O)NC(CCO)c4ccccc4)ccc3Cl)c(=O)[nH]c2n1` (stereo not drawn) [Example 154, N-(2-Chloro-5-(3-hydroxy-1-phenylpropylcarbamoyl)phenyl)-2-(2-hydroxy-2-methylpropylamino)-7-oxo-7,8-dihydropyrido[2,3-d]pyrimidine-6-carboxamide], the IC50 at Human DYRK1A worked out at 0.075 µM; at Human DYRK1B, 0.078 µM.
For the compound `COc1ncc2cc(C(=O)Nc3cc(C(=O)NCc4cccc(C(F)(F)F)c4)ccc3Cl)c(=O)[nH]c2n1` [Example 59, 2-Methoxy-7-oxo-7,8-dihydro-pyrido[2,3-d]pyrimidine-6-carboxylic acid [2-chloro-5-(3-trifluoromethyl-benzylcarbamoyl)-phenyl]-amide], the IC50 on Human DYRK1A was 0.0723 µM; at Human DYRK1B, 0.222 µM.
Regarding `CN(C)c1ncc2cc(C(=O)Nc3cc(C(=O)NCc4cccc(Cl)c4)ccc3Cl)c(=O)[nH]c2n1` [Example 155, N-(2-Chloro-5-(3-chlorobenzylcarbamoyl)phenyl)-2-(dimethylamino)-7-oxo-7,8-dihydropyrido[2,3-d]pyrimidine-6-carboxamide], the IC50 on Human DYRK1A was 0.0485 µM; on Human DYRK1B, 0.0923 µM.

Usually IC50 stands for the concentration that inhibits the measured activity by half.
